Measurements as given in EPA's ToxValDB 9.5 (doi:10.2903/j.efsa.2006.89r).
Values after ≈ are worked out from the molar mass of the structure shown.

How the values were obtained:
Bibionidae = settings: chronic/long-term; duration: 28 days
Lepomis macrochirus = settings: acute; duration: 96 hours; mortality
Daphnia magna = settings: acute; duration: 48 hours; mortality
Colinus virginianus = settings: reproduction developmental
Apis mellifera = settings: acute; duration: 48 hours; dermal; mortality
Canidae = settings: oral, Dog Other, clinical signs
Anas platyrhynchos = settings: oral, mortality

## CCOC(=O)CCN(SN(C)C(=O)Oc1cccc2c1OC(C)(C)C2)C(C)C [Benfuracarb]
Bibionidae
  NOEC: 0.001 mg/L
Lepomis macrochirus
  LC50: 0.017 mg/L (≈ 0.0414 µM)
Daphnia magna
  LC50: 0.0099 mg/L (≈ 0.0241 µM)
Colinus virginianus
  NOEC: 8.93 mg/kg-day
Apis mellifera
  LD50: 0.19 µg/piece
Canidae; chronic, duration: 2 years
  NOAEL: 2.5 mg/kg-day
Canidae; chronic, duration: 6 months
  NOAEL: 2.5 mg/kg-day
Canidae; subchronic, duration: 13 weeks
  NOAEL: 0.625 mg/kg-day
Anas platyrhynchos; acute, unspecified
  LD50: 19.8 mg/kg
Anas platyrhynchos; short-term, feed
  LC50: 15 mg/kg-day
Rattus norvegicus; acute, oral, mortality
  LD50: 205 mg/kg
Rattus norvegicus; reproduction developmental, reproduction
  NOAEL: 1.2 mg/kg-day
Rattus norvegicus; short-term, duration: 28 days, clinical chemistry
  NOAEL: 1.8 mg/kg-day
